The text below walks through data of PubChem BioAssay AID1963984 (Molecular Pharmacology Branch, DTP, NCI, 2024).

Structures are written as SMILES.
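Note: spheroids exposed to agents for seven days before readout; percent viability relative to DMSO vehicle control taken as 100%.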

For the first test, the system named is 233499-124-R-J3-PDC spheroids with HUVEC/MSC, viability. Description: Anticancer human tumor 233499-124-R-J3-PDC patient-derived colon adenocarcinoma cell line growth inhibition [PI3K]. Particulars: second compound 0.0316 µM; first compound 1 µM; hits give low values. Summed up:
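Tumor cells grown as multi-cell spheroids with HUVEC endothelial cells and MSC fibroblast-like stroma were treated with targeted agents combined with inavolisib, alpelisib, duvelisib or copanlisib. Doses fell in half-log steps from near clinical Cmax, else from 10 microM. Viability was measured.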
Take `C#Cc1c(F)ccc2cc(O)cc(-c3ncc4c(N5CC6CCC(C5)N6)nc(OCC56CCCN5CC(F)C6)nc4c3F)c12` (stereo unspecified) + CC(Nc1ccc2c(c1)OCCn1cc(N3C(=O)OCC3C(F)F)nc1-2)C(N)=O: the viability, T/C is 85.4%.

In the case of `C=CC(=O)N1CCN(c2nc(=O)n(-c3c(C)ccnc3C(C)C)c3nc(-c4c(O)cccc4F)c(F)cc23)C(C)C1` (stereo unspecified) + CC(Nc1ccc2c(c1)OCCn1cc(N3C(=O)OCC3C(F)F)nc1-2)C(N)=O, the viability, T/C was 92.8%.

`CC(Cn1ccc(-c2ccc(C#N)c(Cl)c2)n1)NC(=O)c1cc(C(C)O)[nH]n1` (stereo unspecified) + CC(Nc1ccc2c(c1)OCCn1cc(N3C(=O)OCC3C(F)F)nc1-2)C(N)=O: the viability, T/C was 93.9%.

The same test, now with this note: second compound 0.0316 µM; first compound 3.16 µM; hits give low values.
As for `C#Cc1c(F)ccc2cc(O)cc(-c3ncc4c(N5CC6CCC(C5)N6)nc(OCC56CCCN5CC(F)C6)nc4c3F)c12` (stereo unspecified) + CC(Nc1ccc2c(c1)OCCn1cc(N3C(=O)OCC3C(F)F)nc1-2)C(N)=O, the viability, T/C was 95.8%.

Regarding `C=CC(=O)N1CCN(c2nc(=O)n(-c3c(C)ccnc3C(C)C)c3nc(-c4c(O)cccc4F)c(F)cc23)C(C)C1` (stereo unspecified) + CC(Nc1ccc2c(c1)OCCn1cc(N3C(=O)OCC3C(F)F)nc1-2)C(N)=O, the viability, T/C was 93.5%.

Consider `CC(Cn1ccc(-c2ccc(C#N)c(Cl)c2)n1)NC(=O)c1cc(C(C)O)[nH]n1` (stereo unspecified) + CC(Nc1ccc2c(c1)OCCn1cc(N3C(=O)OCC3C(F)F)nc1-2)C(N)=O, for which the viability, T/C was 101%.

The same test, now with this note: second compound 0.0316 µM; first compound 10 µM; hits give low values.
On to `C#Cc1c(F)ccc2cc(O)cc(-c3ncc4c(N5CC6CCC(C5)N6)nc(OCC56CCCN5CC(F)C6)nc4c3F)c12` (stereo unspecified) + CC(Nc1ccc2c(c1)OCCn1cc(N3C(=O)OCC3C(F)F)nc1-2)C(N)=O, for which the viability, T/C is 77.4%.

With `C=CC(=O)N1CCN(c2nc(=O)n(-c3c(C)ccnc3C(C)C)c3nc(-c4c(O)cccc4F)c(F)cc23)C(C)C1` (stereo unspecified) + CC(Nc1ccc2c(c1)OCCn1cc(N3C(=O)OCC3C(F)F)nc1-2)C(N)=O, the viability, T/C was 84.6%.

Take `CC(Cn1ccc(-c2ccc(C#N)c(Cl)c2)n1)NC(=O)c1cc(C(C)O)[nH]n1` (stereo unspecified) + CC(Nc1ccc2c(c1)OCCn1cc(N3C(=O)OCC3C(F)F)nc1-2)C(N)=O: the viability, T/C was 83%.

The test is the same for the next values; noted with them: second compound 0.1 µM; first compound 0.0316 µM; hits give low values.
Consider `C#Cc1c(F)ccc2cc(O)cc(-c3ncc4c(N5CC6CCC(C5)N6)nc(OCC56CCCN5CC(F)C6)nc4c3F)c12` (stereo unspecified) + CC(Nc1ccc2c(c1)OCCn1cc(N3C(=O)OCC3C(F)F)nc1-2)C(N)=O, for which the viability, T/C was 99.8%.

As to `C=CC(=O)N1CCN(c2nc(=O)n(-c3c(C)ccnc3C(C)C)c3nc(-c4c(O)cccc4F)c(F)cc23)C(C)C1` (stereo unspecified) + CC(Nc1ccc2c(c1)OCCn1cc(N3C(=O)OCC3C(F)F)nc1-2)C(N)=O, the viability, T/C was 103%.

`CC(Cn1ccc(-c2ccc(C#N)c(Cl)c2)n1)NC(=O)c1cc(C(C)O)[nH]n1` (stereo unspecified) + CC(Nc1ccc2c(c1)OCCn1cc(N3C(=O)OCC3C(F)F)nc1-2)C(N)=O: the viability, T/C is 83.1%.

The test is the same for the next values; noted with them: second compound 0.1 µM; first compound 0.1 µM; hits give low values.
In the case of `C#Cc1c(F)ccc2cc(O)cc(-c3ncc4c(N5CC6CCC(C5)N6)nc(OCC56CCCN5CC(F)C6)nc4c3F)c12` (stereo unspecified) + CC(Nc1ccc2c(c1)OCCn1cc(N3C(=O)OCC3C(F)F)nc1-2)C(N)=O, the viability, T/C was 81%.

As to `C=CC(=O)N1CCN(c2nc(=O)n(-c3c(C)ccnc3C(C)C)c3nc(-c4c(O)cccc4F)c(F)cc23)C(C)C1` (stereo unspecified) + CC(Nc1ccc2c(c1)OCCn1cc(N3C(=O)OCC3C(F)F)nc1-2)C(N)=O, the viability, T/C is 94.5%.

As to `CC(Cn1ccc(-c2ccc(C#N)c(Cl)c2)n1)NC(=O)c1cc(C(C)O)[nH]n1` (stereo unspecified) + CC(Nc1ccc2c(c1)OCCn1cc(N3C(=O)OCC3C(F)F)nc1-2)C(N)=O, the viability, T/C is 89.3%.

The same test, now with this note: second compound 0.1 µM; first compound 0.316 µM; hits give low values.
With `C#Cc1c(F)ccc2cc(O)cc(-c3ncc4c(N5CC6CCC(C5)N6)nc(OCC56CCCN5CC(F)C6)nc4c3F)c12` (stereo unspecified) + CC(Nc1ccc2c(c1)OCCn1cc(N3C(=O)OCC3C(F)F)nc1-2)C(N)=O, the viability, T/C is 83.9%.

Take `C=CC(=O)N1CCN(c2nc(=O)n(-c3c(C)ccnc3C(C)C)c3nc(-c4c(O)cccc4F)c(F)cc23)C(C)C1` (stereo unspecified) + CC(Nc1ccc2c(c1)OCCn1cc(N3C(=O)OCC3C(F)F)nc1-2)C(N)=O: the viability, T/C is 91.3%.

Regarding `CC(Cn1ccc(-c2ccc(C#N)c(Cl)c2)n1)NC(=O)c1cc(C(C)O)[nH]n1` (stereo unspecified) + CC(Nc1ccc2c(c1)OCCn1cc(N3C(=O)OCC3C(F)F)nc1-2)C(N)=O, the viability, T/C is 90%.

Staying with this test, now noted: second compound 0.1 µM; first compound 1 µM; hits give low values.
`C#Cc1c(F)ccc2cc(O)cc(-c3ncc4c(N5CC6CCC(C5)N6)nc(OCC56CCCN5CC(F)C6)nc4c3F)c12` (stereo unspecified) + CC(Nc1ccc2c(c1)OCCn1cc(N3C(=O)OCC3C(F)F)nc1-2)C(N)=O: the viability, T/C is 60.2%.

Turning to `C=CC(=O)N1CCN(c2nc(=O)n(-c3c(C)ccnc3C(C)C)c3nc(-c4c(O)cccc4F)c(F)cc23)C(C)C1` (stereo unspecified) + CC(Nc1ccc2c(c1)OCCn1cc(N3C(=O)OCC3C(F)F)nc1-2)C(N)=O, the viability, T/C was 83%.

Take `CC(Cn1ccc(-c2ccc(C#N)c(Cl)c2)n1)NC(=O)c1cc(C(C)O)[nH]n1` (stereo unspecified) + CC(Nc1ccc2c(c1)OCCn1cc(N3C(=O)OCC3C(F)F)nc1-2)C(N)=O: the viability, T/C is 80.3%.

Staying with this test, now noted: second compound 0.1 µM; first compound 3.16 µM; hits give low values.
As for `C#Cc1c(F)ccc2cc(O)cc(-c3ncc4c(N5CC6CCC(C5)N6)nc(OCC56CCCN5CC(F)C6)nc4c3F)c12` (stereo unspecified) + CC(Nc1ccc2c(c1)OCCn1cc(N3C(=O)OCC3C(F)F)nc1-2)C(N)=O, the viability, T/C is 70.8%.

On to `C=CC(=O)N1CCN(c2nc(=O)n(-c3c(C)ccnc3C(C)C)c3nc(-c4c(O)cccc4F)c(F)cc23)C(C)C1` (stereo unspecified) + CC(Nc1ccc2c(c1)OCCn1cc(N3C(=O)OCC3C(F)F)nc1-2)C(N)=O, for which the viability, T/C is 87%.

`CC(Cn1ccc(-c2ccc(C#N)c(Cl)c2)n1)NC(=O)c1cc(C(C)O)[nH]n1` (stereo unspecified) + CC(Nc1ccc2c(c1)OCCn1cc(N3C(=O)OCC3C(F)F)nc1-2)C(N)=O: the viability, T/C is 74.4%.

Still in this test, the particulars now being: second compound 0.1 µM; first compound 10 µM; hits give low values.
In the case of `C#Cc1c(F)ccc2cc(O)cc(-c3ncc4c(N5CC6CCC(C5)N6)nc(OCC56CCCN5CC(F)C6)nc4c3F)c12` (stereo unspecified) + CC(Nc1ccc2c(c1)OCCn1cc(N3C(=O)OCC3C(F)F)nc1-2)C(N)=O, the viability, T/C is 49.6%.

On to `C=CC(=O)N1CCN(c2nc(=O)n(-c3c(C)ccnc3C(C)C)c3nc(-c4c(O)cccc4F)c(F)cc23)C(C)C1` (stereo unspecified) + CC(Nc1ccc2c(c1)OCCn1cc(N3C(=O)OCC3C(F)F)nc1-2)C(N)=O, for which the viability, T/C is 57.1%.

As for `CC(Cn1ccc(-c2ccc(C#N)c(Cl)c2)n1)NC(=O)c1cc(C(C)O)[nH]n1` (stereo unspecified) + CC(Nc1ccc2c(c1)OCCn1cc(N3C(=O)OCC3C(F)F)nc1-2)C(N)=O, the viability, T/C was 71%.

The same test, now with this note: second compound 0.316 µM; first compound 0.0316 µM; hits give low values.
`C#Cc1c(F)ccc2cc(O)cc(-c3ncc4c(N5CC6CCC(C5)N6)nc(OCC56CCCN5CC(F)C6)nc4c3F)c12` (stereo unspecified) + CC(Nc1ccc2c(c1)OCCn1cc(N3C(=O)OCC3C(F)F)nc1-2)C(N)=O: the viability, T/C is 77.2%.

Consider `C=CC(=O)N1CCN(c2nc(=O)n(-c3c(C)ccnc3C(C)C)c3nc(-c4c(O)cccc4F)c(F)cc23)C(C)C1` (stereo unspecified) + CC(Nc1ccc2c(c1)OCCn1cc(N3C(=O)OCC3C(F)F)nc1-2)C(N)=O, for which the viability, T/C is 92.7%.

As to `CC(Cn1ccc(-c2ccc(C#N)c(Cl)c2)n1)NC(=O)c1cc(C(C)O)[nH]n1` (stereo unspecified) + CC(Nc1ccc2c(c1)OCCn1cc(N3C(=O)OCC3C(F)F)nc1-2)C(N)=O, the viability, T/C was 76%.

The test is the same for the next values; noted with them: second compound 0.316 µM; first compound 0.1 µM; hits give low values.
Turning to `C#Cc1c(F)ccc2cc(O)cc(-c3ncc4c(N5CC6CCC(C5)N6)nc(OCC56CCCN5CC(F)C6)nc4c3F)c12` (stereo unspecified) + CC(Nc1ccc2c(c1)OCCn1cc(N3C(=O)OCC3C(F)F)nc1-2)C(N)=O, the viability, T/C was 78.2%.
